Laboratory results published in ChEMBL document CHEMBL1159211, “Antifungal evaluation of pseudolaric acid B, a major constituent of Pseudolarix kaempferi” (J Nat Prod, 1995).
Values after ≈ are worked out from the molar mass of the structure shown.

Assays:
Torula [1] = test: Antifungal activity against Torula cremoris NRRL 7495 at 1 mg/mL by agar-well diffusion assay; assay type: functional; conditions: Torula, NRRL 7495; read-out: IZ
Starmerella magnoliae = test: Antifungal activity against Candida magnoliae ATCC 12573 at 1 mg/mL by agar-well diffusion assay; assay type: functional; conditions: ATCC 12573; read-out: IZ
Candida tropicalis [2] = test: Antifungal activity against Candida tropicalis LM 64 by twofold serial broth dilution method; assay type: functional
Torula [3] = test: Antifungal activity against Torula cremoris NRRL 7495 by twofold serial broth dilution method; assay type: functional
Candida tropicalis [4] = test: Antifungal activity against Candida tropicalis ATCC 20021 by twofold serial broth dilution method; assay type: functional
Candida albicans [5] = test: Antifungal activity against Candida albicans B311 by twofold serial broth dilution method; assay type: functional
Candida tropicalis [6] = test: Antifungal activity against Candida tropicalis LM 64 at 1 mg/mL by agar-well diffusion assay; assay type: functional; conditions: Candida tropicalis; read-out: IZ
Yarrowia deformans [7] = test: Antifungal activity against Torulopsis petrophilum ATCC 20225 by twofold serial broth dilution method; assay type: functional
Yarrowia deformans [8] = test: Antifungal activity against Torulopsis petrophilum ATCC 20225 at 1 mg/mL by agar-well diffusion assay; assay type: functional; conditions: Yarrowia deformans, ATCC 20225; read-out: IZ
Candida tropicalis [9] = test: Antifungal activity against Candida tropicalis ATCC 20326 by twofold serial broth dilution method; assay type: functional
Candida albicans [10] = test: Antifungal activity against Candida stellatoidea SA-I by twofold serial broth dilution method; assay type: functional
Candida albicans [11] = test: Antifungal activity against Candida stellatoidea SA-I at 1 mg/mL by agar-well diffusion assay; assay type: functional; conditions: Candida albicans; read-out: IZ
Candida albicans [12] = test: Antifungal activity against Candida albicans ATCC 10231 at 1 mg/mL by agar-well diffusion assay; assay type: functional; conditions: Candida albicans, ATCC 10231; read-out: IZ
Candida albicans [13] = test: Antifungal activity against Candida albicans NIH B311 infected in mouse assessed as reduction in number of recovered colony-forming units assessed per mg of kidney at 1 mg/kg, ip administered 7 and 24 hrs after infection measured 16 hrs after final injection by tenfold serial dilution method relative to control; assay type: functional; design: scale not given: the % may be the effect or the level left; conditions: route intraperitoneal
Candida albicans [14] = test: Antifungal activity against Candida albicans ATCC 10231 by twofold serial broth dilution method; assay type: functional
Candida tropicalis [15] = test: Antifungal activity against Candida tropicalis ATCC 20326 at 1 mg/mL by agar-well diffusion assay; assay type: functional; conditions: Candida tropicalis, ATCC 20326; read-out: IZ
Candida tropicalis [16] = test: Antifungal activity against Candida tropicalis ATCC 20021 at 1 mg/mL by agar-well diffusion assay; assay type: functional; conditions: Candida tropicalis, ATCC 20021; read-out: IZ
Candida parapsilosis [17] = test: Antifungal activity against Candida parapsilosis ATCC 20224 at 1 mg/mL by agar-well diffusion assay; assay type: functional; conditions: Lodderomyces parapsilosis, ATCC 20224; read-out: IZ
Candida albicans [18] = test: Antifungal activity against Candida albicans B311 at 1 mg/mL by agar-well diffusion assay; assay type: functional; conditions: Candida albicans, B311; read-out: IZ
Candida parapsilosis [19] = test: Antifungal activity against Candida parapsilosis ATCC 20224 by twofold serial broth dilution method; assay type: functional; conditions: Lodderomyces parapsilosis
Mus musculus [20] = test: Toxicity in CD1 mouse assessed as body weight at 40 mg/kg, ip after day 1; assay type: organism-based; design: dose 40 mg/kg, route intraperitoneal; conditions: in vivo
Mus musculus [21] = test: Toxicity in CD1 mouse assessed as body weight at 40 mg/kg, ip administered for 14 consecutive days measured after day 21; assay type: organism-based; design: dose 40 mg/kg, route intraperitoneal; conditions: in vivo
Aspergillus fumigatus = test: Antimicrobial activity against Aspergillus fumigatus at 1 mg/mL by agar-well diffusion assay; assay type: functional; conditions: Aspergillus fumigatus; read-out: IZ
Mus musculus [22] = test: Toxicity in CD1 mouse assessed as unusual behavioral changes at 40 mg/kg, ip administered for 14 consecutive days measured daily for 4 weeks; assay type: organism-based; design: dose 40 mg/kg, route intraperitoneal; conditions: in vivo, 672 h
[23] = Toxicity in ip dosed CD1 mouse; assay type: organism-based; conditions: in vivo
Candida albicans [24] = test: Antifungal activity against Candida albicans NIH B311 infected in mouse assessed as reduction in number of recovered colony-forming units assessed per mg of kidney at 3 mg/kg, sc administered 7 and 24 hrs after infection measured 16 hrs after final injection by tenfold serial dilution method relative to control; assay type: functional; design: scale not given: the % may be the effect or the level left; conditions: route subcutaneous
[25] = system: Mycobacterium intracellulare; test: Antimicrobial activity against Mycobacterium intracellular at 1 mg/mL by agar-well diffusion assay; assay type: functional; conditions: read-out: IZ
Mus musculus [26] = test: Toxicity in CD1 mouse assessed as body weight at 40 mg/kg, ip administered for 14 consecutive days measured after day 14; assay type: organism-based; design: dose 40 mg/kg, route intraperitoneal; conditions: in vivo
[27] = Toxicity in iv dosed CD1 mouse; assay type: organism-based; conditions: in vivo
Candida albicans [28] = test: Antifungal activity against Candida albicans NIH B311 infected in mouse assessed as reduction in number of recovered colony-forming units assessed per mg of kidney at 10 mg/kg, iv administered 18 and 42 hrs after infection measured 16 hrs after final injection by tenfold serial dilution method relative to control; assay type: functional; design: scale not given: the % may be the effect or the level left
Nannizzia gypsea = test: Antimicrobial activity against Microsporum gypseum at 1 mg/mL by agar-well diffusion assay; assay type: functional; conditions: Nannizzia gypsea; read-out: IZ
Candida albicans [29] = test: Antifungal activity against Candida albicans NIH B311 infected in mouse assessed as reduction in number of recovered colony-forming units assessed per mg of kidney at 20 mg/kg, iv administered 18 and 42 hrs after infection measured 16 hrs after final injection by tenfold serial dilution method relative to control; assay type: functional; design: scale not given: the % may be the effect or the level left
[30] = system: Trichophyton mentagrophytes; test: Antimicrobial activity against Trichophyton mentagrophytes at 1 mg/mL by agar-well diffusion assay; assay type: functional; conditions: Trichophyton mentagrophytes; read-out: IZ
Candida albicans [31] = test: Antifungal activity against Candida albicans NIH B311 infected in mouse assessed as reduction in number of recovered colony-forming units assessed per mg of kidney at 20 mg/kg, sc administered 7 and 24 hrs after infection measured 16 hrs after final injection by tenfold serial dilution method relative to control; assay type: functional; design: scale not given: the % may be the effect or the level left; conditions: route subcutaneous
Candida albicans [32] = test: Antimicrobial activity against Candida albicans at 1 mg/mL by agar-well diffusion assay; assay type: functional; conditions: Candida albicans; read-out: IZ
Candida albicans [33] = test: Antifungal activity against Candida albicans NIH B311 infected in mouse assessed as reduction in number of recovered colony-forming units assessed per mg of kidney at 10 mg/kg, sc administered 7 and 24 hrs after infection measured 16 hrs after final injection by tenfold serial dilution method relative to control; assay type: functional; design: scale not given: the % may be the effect or the level left; conditions: route subcutaneous

## C[C@@H]1[C@H](O)[C@@H](C)/C=C/C=C/C=C/C=C/C=C/C=C/C=C/[C@H](O[C@@H]2O[C@H](C)[C@@H](O)[C@H](N)[C@@H]2O)C[C@@H]2O[C@](O)(C[C@@H](O)C[C@@H](O)[C@H](O)CC[C@@H](O)C[C@@H](O)CC(=O)O[C@H]1C)C[C@H](O)[C@H]2C(=O)O [AMPHOTERICIN B]
Torula [1]
  zone of inhibition at 1000 µg/mL: 7 mm
Starmerella magnoliae
  zone of inhibition at 1000 µg/mL: 7 mm
Candida tropicalis [2]
  MIC: 1.56 µg/mL (≈ 1.69 µM)
Torula [3]
  MIC: 3.12 µg/mL (≈ 3.38 µM)
Candida tropicalis [4]
  MIC: 3.12 µg/mL (≈ 3.38 µM)
Candida albicans [5]
  MIC: 1.56 µg/mL (≈ 1.69 µM)
Candida tropicalis [6]
  zone of inhibition at 1000 µg/mL: 7 mm
Yarrowia deformans [7]
  MIC: 0.2 µg/mL (≈ 0.216 µM)
Yarrowia deformans [8]
  zone of inhibition at 1000 µg/mL: 7 mm
Candida tropicalis [9]
  MIC: 1.56 µg/mL (≈ 1.69 µM)
Candida albicans [10]
  MIC: 3.12 µg/mL (≈ 3.38 µM)
Candida albicans [11]
  zone of inhibition at 1000 µg/mL: 7 mm
Candida albicans [12]
  zone of inhibition at 1000 µg/mL: 7 mm
Candida albicans [13]
  Activity: 99.82%
Candida albicans [14]
  MIC: 3.12 µg/mL (≈ 3.38 µM)
Candida tropicalis [15]
  zone of inhibition at 1000 µg/mL: 7 mm
Candida tropicalis [16]
  zone of inhibition at 1000 µg/mL: 7 mm
Candida parapsilosis [17]
  zone of inhibition at 1000 µg/mL: 3 mm
Candida albicans [18]
  zone of inhibition at 1000 µg/mL: 7 mm
Candida parapsilosis [19]
  MIC: 1.56 µg/mL (≈ 1.69 µM)

## COC(=O)C1=CC[C@@]23CC[C@@H]([C@@](C)(/C=C/C=C(\C)C(=O)O)OC2=O)[C@@]3(OC(C)=O)CC1 [PSEUDOLARIC ACID B]
Mus musculus [20]
  Activity: 22.5 g
Mus musculus [21]
  Activity: 24.7 g
Torula [1]
  zone of inhibition at 1000 µg/mL: 3 mm
Starmerella magnoliae
  zone of inhibition at 1000 µg/mL: < 1 mm
Candida tropicalis [2]
  MFC: 6.25 µg/mL (≈ 14.5 µM)
  MIC: 0.78 µg/mL (≈ 1.8 µM)
Torula [3]
  MFC: 12.5 µg/mL (≈ 28.9 µM)
  MIC: 12.5 µg/mL (≈ 28.9 µM)
Candida tropicalis [4]
  MFC: 3.12 µg/mL (≈ 7.21 µM)
  MIC: 1.56 µg/mL (≈ 3.61 µM)
Aspergillus fumigatus
  zone of inhibition at 1000 µg/mL: 3 mm
Mus musculus [22]
  Activity: Non-toxic
Candida albicans [5]
  MFC: 3.12 µg/mL (≈ 7.21 µM)
  MIC: 1.56 µg/mL (≈ 3.61 µM)
Candida tropicalis [6]
  zone of inhibition at 1000 µg/mL: > 12 mm
Yarrowia deformans [7]
  MFC: 1.56 µg/mL (≈ 3.61 µM)
  MIC: 0.78 µg/mL (≈ 1.8 µM)
[23]
  LD50: 316 mg/kg
Candida albicans [24]
  Activity: 70.27%
[25]
  zone of inhibition at 1000 µg/mL: 1 mm
Mus musculus [26]
  Activity: 24.1 g
[27]
  LD50: 423 mg/kg
Yarrowia deformans [8]
  zone of inhibition at 1000 µg/mL: 7 mm
Candida tropicalis [9]
  MFC: 3.12 µg/mL (≈ 7.21 µM)
  MIC: 1.56 µg/mL (≈ 3.61 µM)
Candida albicans [10]
  MFC: 6.25 µg/mL (≈ 14.5 µM)
  MIC: 1.56 µg/mL (≈ 3.61 µM)
Candida albicans [11]
  zone of inhibition at 1000 µg/mL: > 12 mm
Candida albicans [28]
  Activity: 95.34%
Candida albicans [12]
  zone of inhibition at 1000 µg/mL: 7 mm
Candida albicans [14]
  MFC: 3.12 µg/mL (≈ 7.21 µM)
  MIC: 1.56 µg/mL (≈ 3.61 µM)
Nannizzia gypsea
  zone of inhibition at 1000 µg/mL: 7 mm
Candida tropicalis [15]
  zone of inhibition at 1000 µg/mL: 7 mm
Candida tropicalis [16]
  zone of inhibition at 1000 µg/mL: 7 mm
Candida parapsilosis [17]
  zone of inhibition at 1000 µg/mL: 7 mm
Candida albicans [29]
  Activity: 59.9%
Candida albicans [18]
  zone of inhibition at 1000 µg/mL: 7 mm
[30]
  zone of inhibition at 1000 µg/mL: 7 mm
Candida albicans [31]
  Activity: 76.7%
Candida albicans [32]
  zone of inhibition at 1000 µg/mL: 7 mm
Candida parapsilosis [19]
  MFC: 12.5 µg/mL (≈ 28.9 µM)
  MIC: 3.12 µg/mL (≈ 7.21 µM)
Candida albicans [33]
  Activity: 75%
